# Results reported in ChEMBL document CHEMBL1201862, “PubChem BioAssay data set” (2004).
# Activity calls are given as the source filed them.
# How the values were obtained:
# [1] = Vero E6 cell cytotoxicity, dose response, cytotoxicity control for non-replicating M. tuberculosis project, secondary assay (AID 492998); type: functional, VeroE6; details: Vero C1008
# [2] = cells; type: functional
# [3] = molecular target: T1, COUP transcription factor 2 (Homo sapiens, UniProt P24468); experiment: Luminescence-based cell-based high throughput dose response assay to identify inhibitors of COUP-TFII (NR2F2).; type: functional;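 also: HEK293 cells transiently cotransfected with COUP-TFII expression vector and reporter; luciferase reporter luminescence driven by COUP-TFII from the pX2-168 reporter plasmid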
# T1 sequence (P24468 whole entry): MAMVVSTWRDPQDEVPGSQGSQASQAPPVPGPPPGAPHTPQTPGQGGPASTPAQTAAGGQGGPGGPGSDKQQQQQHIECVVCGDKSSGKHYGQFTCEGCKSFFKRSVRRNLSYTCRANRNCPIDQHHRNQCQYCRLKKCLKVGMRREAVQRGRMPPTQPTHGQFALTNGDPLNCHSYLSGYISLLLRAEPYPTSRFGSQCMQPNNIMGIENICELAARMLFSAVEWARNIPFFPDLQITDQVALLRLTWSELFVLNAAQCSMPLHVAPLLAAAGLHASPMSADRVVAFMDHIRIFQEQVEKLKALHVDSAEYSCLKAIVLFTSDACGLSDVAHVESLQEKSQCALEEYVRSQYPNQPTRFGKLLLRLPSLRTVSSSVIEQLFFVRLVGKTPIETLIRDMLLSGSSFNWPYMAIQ
# [4] = viability of PTEN-deleted HCT116 cells – cell-based, HCT116 PTEN knockout, dose response (AID 1047); type: functional;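 also: HCT116 colon tumor cells with PTEN knocked out; cells exposed to compound for 60 hours before readout; potency for loss of cell viability measured by luminescence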
# [5] = HEK-293T viability loss after treatment – luminescence, T-cell screen hits, cytotoxicity control for TCR NF-kB inhibitor project, dose response (AID 489026); type: functional, cell-based;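 also: cells exposed to compound about 14 hours before the viability readout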
# [6] = viability of HCT116 lacking mutant beta-catenin – cell-based, human colon tumor, dose response (AID 1045); type: functional;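 also: HCT116 colon tumor cells with beta catenin knocked out; cells exposed to compound for 60 hours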
# [7] = molecular target: Cytochrome P450 3A4 (Homo sapiens, UniProt P08684);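 also: CYP3A4 tested as one member of a cytochrome P450 panel screen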
# Chain of Cytochrome P450 3A4 (P08684 whole entry): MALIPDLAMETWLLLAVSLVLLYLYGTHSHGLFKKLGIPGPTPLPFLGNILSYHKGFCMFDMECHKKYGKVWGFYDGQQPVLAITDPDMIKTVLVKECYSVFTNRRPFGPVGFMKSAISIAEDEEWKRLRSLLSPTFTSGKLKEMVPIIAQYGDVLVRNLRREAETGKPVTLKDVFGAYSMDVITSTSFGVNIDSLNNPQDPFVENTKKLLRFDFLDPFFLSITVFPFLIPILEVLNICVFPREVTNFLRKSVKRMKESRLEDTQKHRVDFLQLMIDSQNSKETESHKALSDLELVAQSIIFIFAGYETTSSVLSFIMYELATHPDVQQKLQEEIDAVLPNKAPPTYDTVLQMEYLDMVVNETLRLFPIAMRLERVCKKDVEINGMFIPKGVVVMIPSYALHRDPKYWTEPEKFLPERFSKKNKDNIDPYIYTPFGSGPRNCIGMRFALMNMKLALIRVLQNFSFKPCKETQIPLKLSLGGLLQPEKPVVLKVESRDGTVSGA
# [8] = A cytotoxicity screen of small molecule inhibitors of the PhoP region in Salmonella typhi identified in the primary screen. [Related pubchem assays: 1850, 1864, 1985 ]; type: functional
# [9] = molecular target: Voltage-dependent T-type calcium channel subunit alpha-1H (Homo sapiens, UniProt O95180); type: functional;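 also: channel activity triggered by adding a high calcium stimulation buffer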
# [10] = viability of uninfected HEp-2 cells – cell-based, HTS, cytotoxicity control for RSV inhibitor project, dose response (AID 2410); type: functional; details: human respiratory syncytial virus
# [11] = molecular target: FAD-linked sulfhydryl oxidase ALR (Homo sapiens, UniProt P55789); experiment: ALR-catalysed DTT oxidation blockers – biochemical, H2O2 detection, luminescence, cherry-pick, dose response (AID 493248)
# [12] = molecular target: Peroxisome proliferator-activated receptor gamma/Nuclear receptor coactivator 3 (Homo sapiens, UniProt P37231); experiment: (§1) TR-FRET dose response biochemical High Throughput Screening assay for agonists of the steroid receptor coactivator 3 (SRC-3) recruitment by the peroxisome proliferator-activated receptor gamma (PPAR gamma): non-selective agonists. [Related pubchem assays: 1301 (Confirmation screen.), 1048 (Primary screen.)]; type: functional
# Chain of Peroxisome proliferator-activated receptor gamma/Nuclear receptor coactivator 3 (P37231 whole entry): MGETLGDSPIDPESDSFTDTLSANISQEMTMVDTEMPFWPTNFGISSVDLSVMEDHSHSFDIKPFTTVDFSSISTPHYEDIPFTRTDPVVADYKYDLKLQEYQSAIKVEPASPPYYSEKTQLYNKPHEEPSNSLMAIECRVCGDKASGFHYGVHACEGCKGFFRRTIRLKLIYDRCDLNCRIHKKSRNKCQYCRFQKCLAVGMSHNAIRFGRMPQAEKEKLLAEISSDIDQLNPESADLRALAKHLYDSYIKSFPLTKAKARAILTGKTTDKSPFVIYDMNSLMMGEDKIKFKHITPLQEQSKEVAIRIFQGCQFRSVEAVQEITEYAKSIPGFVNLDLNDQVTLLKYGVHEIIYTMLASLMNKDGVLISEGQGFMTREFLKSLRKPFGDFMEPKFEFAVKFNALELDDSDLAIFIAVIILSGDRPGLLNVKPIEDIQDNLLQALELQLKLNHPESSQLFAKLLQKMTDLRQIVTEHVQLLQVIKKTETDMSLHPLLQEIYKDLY
# Chain of Peroxisome proliferator-activated receptor gamma/Nuclear receptor coactivator 3 (Q9Y6Q9 whole entry, further chain): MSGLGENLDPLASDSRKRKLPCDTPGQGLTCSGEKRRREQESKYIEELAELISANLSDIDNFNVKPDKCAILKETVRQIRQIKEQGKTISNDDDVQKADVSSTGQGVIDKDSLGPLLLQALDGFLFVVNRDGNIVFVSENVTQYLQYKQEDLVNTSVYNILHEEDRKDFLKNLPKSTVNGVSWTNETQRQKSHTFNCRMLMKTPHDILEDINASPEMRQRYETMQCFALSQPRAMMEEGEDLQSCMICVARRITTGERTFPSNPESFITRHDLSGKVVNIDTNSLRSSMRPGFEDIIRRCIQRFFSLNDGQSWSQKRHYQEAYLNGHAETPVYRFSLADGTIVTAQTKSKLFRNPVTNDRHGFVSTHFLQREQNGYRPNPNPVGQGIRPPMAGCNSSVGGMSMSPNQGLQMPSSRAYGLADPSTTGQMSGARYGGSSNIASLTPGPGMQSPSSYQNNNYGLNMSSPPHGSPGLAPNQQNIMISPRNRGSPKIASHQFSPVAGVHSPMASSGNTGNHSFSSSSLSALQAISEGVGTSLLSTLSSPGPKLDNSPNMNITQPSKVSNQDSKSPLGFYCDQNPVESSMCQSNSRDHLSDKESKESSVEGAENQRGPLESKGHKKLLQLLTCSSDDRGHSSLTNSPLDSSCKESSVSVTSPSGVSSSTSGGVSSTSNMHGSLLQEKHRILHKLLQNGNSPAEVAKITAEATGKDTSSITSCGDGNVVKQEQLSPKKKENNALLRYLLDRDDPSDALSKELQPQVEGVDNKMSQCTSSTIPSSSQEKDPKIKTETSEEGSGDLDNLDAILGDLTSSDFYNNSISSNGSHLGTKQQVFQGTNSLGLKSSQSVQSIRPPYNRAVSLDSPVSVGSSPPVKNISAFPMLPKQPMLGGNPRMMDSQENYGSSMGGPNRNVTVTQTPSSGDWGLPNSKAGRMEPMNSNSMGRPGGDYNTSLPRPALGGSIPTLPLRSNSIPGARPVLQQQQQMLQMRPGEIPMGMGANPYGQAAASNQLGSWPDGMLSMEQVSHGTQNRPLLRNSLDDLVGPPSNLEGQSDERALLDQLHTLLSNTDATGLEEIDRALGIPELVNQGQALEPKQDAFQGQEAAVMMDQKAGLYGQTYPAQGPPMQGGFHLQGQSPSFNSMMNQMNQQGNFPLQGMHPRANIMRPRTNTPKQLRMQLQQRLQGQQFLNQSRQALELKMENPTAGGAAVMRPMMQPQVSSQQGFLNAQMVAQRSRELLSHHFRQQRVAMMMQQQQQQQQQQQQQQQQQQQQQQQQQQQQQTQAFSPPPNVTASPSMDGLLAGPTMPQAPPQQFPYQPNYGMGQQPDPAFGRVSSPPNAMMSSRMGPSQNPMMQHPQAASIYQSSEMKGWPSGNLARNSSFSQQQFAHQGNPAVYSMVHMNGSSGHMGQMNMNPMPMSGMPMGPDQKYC
# [13] = Trypanosoma cruzi growth suppression in host cells – NIH3T3 host cells, beta-gal luminescence, confirmation (AID 2044); type: functional, cell-based;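 also: intracellular parasites grown in NIH/3T3 mouse fibroblasts as host cells; luminescent beta-galactosidase reporter signal from transgenic T. cruzi replicating inside host cells; inhibitors lower the luminescence signal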
# [14] = molecular target: Peroxisome proliferator-activated receptor gamma/Nuclear receptor coactivator 1 (Homo sapiens, UniProt P37231); experiment: as §1, with “1 (SRC-1)” for “3 (SRC-3)”, “assays (depositor defined):AID1300, AID1808, AID504735, AID631]” for “assays: 1301 (Confirmation screen.), 1048 (Primary screen.)]”; type: protein assay
# [15] = molecular target: Peroxisome proliferator-activated receptor gamma/Nuclear receptor coactivator 2 (Homo sapiens, UniProt P37231); experiment: TR-FRET dose response biochemical High Throughput Screening assay for agonists of the steroid receptor coactivator 2 (SRC-2) recruitment by the peroxisome proliferator-activated receptor gamma (PPAR gamma): non-selective agonists. [Related pubchem assays: 1297, 1032 ]; type: functional
# Chain of Peroxisome proliferator-activated receptor gamma/Nuclear receptor coactivator 2 (P37231 whole entry): as the sequence (P37231 whole entry) above
# Chain of Peroxisome proliferator-activated receptor gamma/Nuclear receptor coactivator 2 (Q15596 whole entry, further chain): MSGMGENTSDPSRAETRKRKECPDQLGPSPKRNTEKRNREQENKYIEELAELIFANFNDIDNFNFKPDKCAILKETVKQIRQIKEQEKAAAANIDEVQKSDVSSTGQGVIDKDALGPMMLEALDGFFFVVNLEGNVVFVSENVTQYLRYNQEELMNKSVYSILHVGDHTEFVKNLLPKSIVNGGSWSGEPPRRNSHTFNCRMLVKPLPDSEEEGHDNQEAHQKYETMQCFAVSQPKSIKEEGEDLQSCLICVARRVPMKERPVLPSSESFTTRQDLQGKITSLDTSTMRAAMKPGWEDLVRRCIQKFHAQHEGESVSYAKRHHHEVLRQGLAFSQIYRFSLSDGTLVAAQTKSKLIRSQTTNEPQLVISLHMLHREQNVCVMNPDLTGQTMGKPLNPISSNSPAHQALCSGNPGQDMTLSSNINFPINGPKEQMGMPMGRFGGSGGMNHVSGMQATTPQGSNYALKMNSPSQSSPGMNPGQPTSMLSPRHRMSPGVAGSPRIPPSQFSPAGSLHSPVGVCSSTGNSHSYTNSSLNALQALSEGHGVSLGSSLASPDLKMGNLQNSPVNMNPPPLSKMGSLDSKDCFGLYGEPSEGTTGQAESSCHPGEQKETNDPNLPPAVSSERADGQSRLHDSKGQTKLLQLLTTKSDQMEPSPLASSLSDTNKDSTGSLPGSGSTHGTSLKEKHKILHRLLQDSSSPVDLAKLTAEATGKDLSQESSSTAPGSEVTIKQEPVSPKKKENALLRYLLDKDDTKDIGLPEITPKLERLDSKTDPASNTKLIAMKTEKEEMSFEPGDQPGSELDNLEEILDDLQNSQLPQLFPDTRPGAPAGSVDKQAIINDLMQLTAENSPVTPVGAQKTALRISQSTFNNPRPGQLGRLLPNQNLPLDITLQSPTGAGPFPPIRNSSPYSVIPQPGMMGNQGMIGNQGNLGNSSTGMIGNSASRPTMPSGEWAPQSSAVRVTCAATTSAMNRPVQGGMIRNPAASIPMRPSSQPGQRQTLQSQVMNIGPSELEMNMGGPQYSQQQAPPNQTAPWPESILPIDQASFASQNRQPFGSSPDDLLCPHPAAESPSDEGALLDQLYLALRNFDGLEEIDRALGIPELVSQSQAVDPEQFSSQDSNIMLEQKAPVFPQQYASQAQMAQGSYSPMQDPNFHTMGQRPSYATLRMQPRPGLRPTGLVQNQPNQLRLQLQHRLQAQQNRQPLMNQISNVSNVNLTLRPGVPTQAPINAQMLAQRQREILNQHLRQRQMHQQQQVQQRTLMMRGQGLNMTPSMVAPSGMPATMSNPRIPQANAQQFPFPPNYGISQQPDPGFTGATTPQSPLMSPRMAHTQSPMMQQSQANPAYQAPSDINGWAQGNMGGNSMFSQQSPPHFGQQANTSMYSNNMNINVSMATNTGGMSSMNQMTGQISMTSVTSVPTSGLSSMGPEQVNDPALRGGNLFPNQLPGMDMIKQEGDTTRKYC
# [16] = NIH3T3 cell viability loss – ATP luminescence, mouse fibroblasts, counter-screen, dose response (AID 2010); type: functional, cell-based;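 also: cells exposed to compound for about 90 hours before reading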
# [17] = A Cell Based Secondary Assay To Explore Cytotoxicity of Compounds that Sensitize Mycobacterium Tuberculosis to Beta-Lactam Antibiotics.; type: functional
# [18] = luciferase reporter signal suppression in cells – H4 neuroglioma cells, luminescence, dose response (AID 1990); type: functional, cell-based
# [19] = Luminescence Cell-Based Dose Response HTS to Identify Inhibitors of 5'UTR Stem-Loop Driven Prion Protein mRNA Translation in H4 Neuroglioblastoma Cells. [Related pubchem assays: 1827 (Project Summary), 1813 (Primary HTS)]; type: functional
# [20] = alpha-synuclein stem-loop luciferase translation blockers – H4 neuroglioma cells, luminescence, confirmation (AID 1988); type: functional, cell-based
# [21] = test system: HEK293; experiment: inhibition of NOD1-driven NF-kB reporter – cell-based, luminescence, uHTS, primary screen (AID 1578); type: functional; details: Homo sapiens
# [22] = test system: HEK293; experiment: cells; type: functional, cell-based; details: Homo sapiens
# [23] = test system: HEK293; experiment: cells; type: functional, cell-based; details: Homo sapiens; remark: listed apart in the source
# [24] = reduction of Shn3 3'UTR-driven luciferase in osteoblasts – cell-based, Clone20 osteoblasts, firefly luciferase, cherry-picked, dose response (AID 624132); type: functional;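 also: firefly luciferase luminescence from reporter carrying the Shn3 3'UTR in osteoblasts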
# [25] = test system: HEK293; experiment: NOD2 signaling inhibitors in MDP-stimulated cells, cell-based, uHTS, luminescence (AID 2001); type: functional; details: Homo sapiens
# [26] = non-specific 3'UTR reporter inhibition in Clone20-Shn3RL – cell-based, Renilla luciferase, cherry-picked, counter-screen for Shn3 inhibitor project, dose response (AID 624133); type: functional
# [27] = loss of viability in HepG2 cells – cell-based, CellTiter-Glo, cherry-picked, cytotoxicity control for Shn3 inhibitor project, dose response (AID 624134); type: functional
# [28] = molecular target: Cytochrome P450 2D6 (Homo sapiens, UniProt P10635);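 also: CYP2D6 member of a cytochrome P450 panel assay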
# [29] = molecular target: Cytochrome P450 2C19 (Homo sapiens, UniProt P33261); experiment: Cytochrome panel assay with activity outcomes. Panel member name: p450-cyp2c19 Compounds with AC50 equal or less than 10 uM are considered active; type: functional
# Chain of Cytochrome P450 2C19 (P33261 whole entry): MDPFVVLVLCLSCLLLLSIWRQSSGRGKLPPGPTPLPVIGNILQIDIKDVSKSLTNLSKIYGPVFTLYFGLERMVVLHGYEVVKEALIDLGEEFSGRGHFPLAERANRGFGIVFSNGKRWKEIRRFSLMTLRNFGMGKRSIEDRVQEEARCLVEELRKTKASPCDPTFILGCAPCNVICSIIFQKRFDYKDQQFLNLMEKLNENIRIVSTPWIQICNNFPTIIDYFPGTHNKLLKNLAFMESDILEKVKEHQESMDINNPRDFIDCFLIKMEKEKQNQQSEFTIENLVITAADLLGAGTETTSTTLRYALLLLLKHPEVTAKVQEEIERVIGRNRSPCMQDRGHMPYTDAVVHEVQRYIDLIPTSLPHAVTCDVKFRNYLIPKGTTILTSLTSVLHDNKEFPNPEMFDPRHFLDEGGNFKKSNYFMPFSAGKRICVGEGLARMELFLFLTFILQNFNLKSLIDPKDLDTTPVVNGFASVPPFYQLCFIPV
# [30] = molecular target: Cytochrome P450 2C9 (Homo sapiens, UniProt P11712)
smiles,measurement,setting,value
CCCn1nnnc1NC(=O)c1cc(Cl)ccc1Cl,CC50,[1],> 20 µM (active)
same,IC50,[2],5.95 µM (active)
Cn1nc(CC(=O)Nc2ccc(N3CCN(C(=O)OC(C)(C)C)CC3)cc2)c2ccccc2c1=O,IC50,[3],4.32 µM (active)
same,EC50,[4],8.04 µM (active)
same,IC50,[5],> 80 µM (inactive)
same,EC50,[6],5.89 µM (active)
COc1ccc(C(=O)NC(=S)NCc2ccccc2)cc1,AC50,[7],inconclusive
Cc1ccc2[nH]c(C(=O)O)c(NC(=O)CN3CCN(c4cccc(C)c4C)CC3)c2c1,EC50,[8],> 50 µM (active)
same,EC50,[9],5.05 µM (active)
same,CC50,[10],13.9 µM (active)
same,AC50,[11],16.3 µM (active)
Cc1cc2cc(CNC(=O)c3cc4ccccc4o3)ccc2n1C,EC50,[12],19.2 µM (not active)
same,EC50,[13],0.547 µM (active)
same,EC50,[14],10.6 µM (inactive)
same,EC50,[15],11.1 µM (not active)
same,EC50,[16],> 60 µM (not active)
COc1ccc(Cl)cc1NC(=O)CN(C)C(=O)c1ccc(N2CCCCCC2)c([N+](=O)[O-])c1,CC50,[17],> 40 µM (active)
Cn1c(=O)cc(SCC(=O)NCC2CCCO2)c2ccc(Cl)cc21 (stereo not given),EC50,[12],> 79.4 µM (not active)
same,EC50,[14],> 79.4 µM (inactive)
same,EC50,[15],> 26.5 µM (not active)
CCOC(=O)/C=c1\s/c(=C\c2c(OC)ccc3ccccc23)c(=O)n1CC(=O)NCC1CCCO1 (stereo not given),CC50,[17],12.6 µM (active)
same,EC50,[18],10.5 µM (active)
same,EC50,[19],12.3 µM (active)
same,EC50,[20],8.43 µM (active)
CCN(CC)C(=O)c1oc2ccc(S(=O)(=O)N3CC(C)CC(C)C3)cc2c1C (stereo not given),EC50,[21],2.78 µM (active)
same,IC50,[3],8.24 µM (active)
same,IC50,[22],4.79 µM (active)
same,IC50,[23],> 20 µM (inactive)
same,AC50,[24],1.02 µM (active)
same,IC50,[25],5.18 µM (active)
same,AC50,[26],6.58 µM (active)
same,AC50,[27],3.55 µM (active)
Clc1cccc(-c2ccc(/C=N/c3ccc(N4CCOCC4)cc3)o2)c1,EC50,[12],> 79.4 µM (not active)
same,EC50,[14],> 79.4 µM (inactive)
same,EC50,[15],28.6 µM (not active)
CO/N=C(/CNC(=O)c1ccc(Cl)cc1Cl)c1ccc(Cl)cc1,AC50,[28],2 µM (inconclusive)
same,AC50,[7],inconclusive
CCCN(CCC)CCc1cccc2c1CC(=O)N2 [ROPINIROLE],AC50,[29],inconclusive
same,AC50,[7],inconclusive
same,AC50,[30],inconclusive
